Two compounds from patent publication US20220227722A1, “SPHINGOSINE 1 PHOSPHATE RECEPTOR MODULATOR” (RECEPTOS LLC, priority 2019, published 2022) can be followed below.

Data set [1] has as its target T1, S1P2R (Homo sapiens, UniProt O95136).
T1 construct: expressed in transfected cells; membranes
Description: [35S]GTPγS binding to membranes, S1P2R. It counts as biochemical. The procedure: (§1) S1P1R is a GPCR that couples exclusively to the inhibitory G protein (Gαi), decreasing adenylate cyclase activity and lowering cyclic adenosine monophosphate (cAMP levels) in the cell. The potency of Compound 1 was tested against the S1P1 receptor (S1P1R) and related family members. The potency and S1P receptor selectivity were measured using two independent in vitro assays, [^35S]guanosine-5′-O-(3-thio)triphosphate ([^35S]GTPγS) and β-lactamase gene expression and activity. The GTPγS binding to membranes prepared from stable mammalian cells lines expressing recombinant human S1P receptors 1-5 (S1P1R-S1P5R) was used to pharmacologically characterize ligand interaction with the S1P receptor family members. […] Membrane-bead complexes were then pelleted by centrifugation before the bound radioactivity was quantified with a MicroBeta2® microplate scintillation counter. The radioactive counts relative to DMSO vehicle were calculated and the half maximal effective concentration (EC50) was determined using non-linear regression.
For orientation: GTPγS resists hydrolysis and so accumulates on activated G proteins.

Data set [2] concerns the target T2, S1P3R (Homo sapiens, UniProt Q99500).
T2 construct: expressed in transfected cells; membranes
Description: [35S]GTPγS binding to membranes, S1P3R. It counts as biochemical. The procedure: as §1

Data set [3] has as its target T3, S1P4R (Homo sapiens, UniProt O95977).
T3 construct: expressed in transfected cells; membranes
T3 sequence (O95977 1-384): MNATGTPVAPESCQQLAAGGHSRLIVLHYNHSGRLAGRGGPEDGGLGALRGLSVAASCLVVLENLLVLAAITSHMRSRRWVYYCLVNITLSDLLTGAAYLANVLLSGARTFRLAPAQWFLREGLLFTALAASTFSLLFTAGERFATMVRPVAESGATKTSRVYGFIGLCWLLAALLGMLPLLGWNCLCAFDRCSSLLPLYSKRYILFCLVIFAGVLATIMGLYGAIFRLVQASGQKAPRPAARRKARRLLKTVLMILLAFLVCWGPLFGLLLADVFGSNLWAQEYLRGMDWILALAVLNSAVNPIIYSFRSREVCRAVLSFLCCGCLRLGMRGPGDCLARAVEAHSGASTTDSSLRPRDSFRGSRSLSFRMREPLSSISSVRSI
In words: [35S]GTPγS binding to membranes, S1P4R. It counts as biochemical. As to the method: as §1

Data set [4] deals with T4, S1P5R (Homo sapiens, UniProt Q9H228).
T4 construct: expressed in transfected cells; membranes
T4 sequence (Q9H228 whole entry): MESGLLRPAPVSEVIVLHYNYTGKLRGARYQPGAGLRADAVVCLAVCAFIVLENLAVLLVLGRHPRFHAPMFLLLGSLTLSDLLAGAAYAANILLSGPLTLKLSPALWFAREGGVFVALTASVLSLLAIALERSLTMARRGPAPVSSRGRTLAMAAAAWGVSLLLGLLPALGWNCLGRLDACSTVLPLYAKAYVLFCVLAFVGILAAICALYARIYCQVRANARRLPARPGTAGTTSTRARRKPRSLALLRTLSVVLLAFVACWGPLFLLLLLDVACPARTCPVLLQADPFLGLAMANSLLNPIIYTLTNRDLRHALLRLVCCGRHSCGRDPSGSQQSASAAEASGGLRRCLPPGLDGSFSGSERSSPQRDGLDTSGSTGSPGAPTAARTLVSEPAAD
In words: [35S]GTPγS binding to membranes, S1P5R. Type of data set: biochemical. The procedure: as §1

The nature of data set [5]: Clinical PK, Phase 1 study of ozanimod HCl in relapsing remitting multiple sclerosis subjects. The conditions noted are these: for Tmax: read-out: Median Tmax; for % of total agonist exposure at steady state: total agonist = sum of ozanimod and active metabolites, ozanimod HCl PO QD. Type of data set: in vivo, human. The source says: Serial blood PK samples were collected on Days 1 and the last day of dosing.

For data set [6], the target named is T5, S1P1R (Homo sapiens, UniProt P21453).
T5 construct: expressed in transfected cells; membranes
T5 sequence (P21453 whole entry): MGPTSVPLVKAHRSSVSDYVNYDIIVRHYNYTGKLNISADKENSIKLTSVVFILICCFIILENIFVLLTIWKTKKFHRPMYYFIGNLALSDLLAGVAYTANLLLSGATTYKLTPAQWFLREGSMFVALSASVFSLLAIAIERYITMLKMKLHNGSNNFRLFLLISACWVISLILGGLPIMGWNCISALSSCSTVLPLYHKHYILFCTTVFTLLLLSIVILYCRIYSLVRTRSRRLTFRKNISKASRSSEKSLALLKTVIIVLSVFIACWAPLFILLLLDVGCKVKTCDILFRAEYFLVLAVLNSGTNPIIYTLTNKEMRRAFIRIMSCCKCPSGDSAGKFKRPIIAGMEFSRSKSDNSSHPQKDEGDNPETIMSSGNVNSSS
Description: [35S]GTPγS binding to membranes, S1P1R. It counts as biochemical. As to the method:
as §1

Data set [7] deals with T5, S1P1R. Description: β-lactamase gene expression and activity whole-cell assay, S1P1R. It counts as cell-based. The following applies: stable cells expressing recombinant human S1P1R. The procedure:
(§2) Up-regulation of β-lactamase gene expression and activity were used as a whole-cell functional readout of S1P receptor activation. […] The respective β-lactamase activity was then determined using a fluorescence resonance energy transfer (FRET)-based β-lactamase fluorescent substrate (LiveBLAzer™-FRET B/G Loading Kit CCF4-AM) according to manufacturer's instructions, and incubated with cells for 2 hours at RT. Plates were read using a SpectraMax M5 Multi-Mode microplate reader and the relative response to DMSO vehicle calculated for the EC50 determination using non-linear regression.

The target in data set [8] is T2, S1P3R. In words: β-lactamase gene expression and activity whole-cell assay, S1P3R. It counts as cell-based. The conditions noted are these: stable cells expressing recombinant human S1P3R. As to the method: as §2
For data set [9], the target named is T3, S1P4R. In words: β-lactamase gene expression and activity whole-cell assay, S1P4R. The conditions noted are these: stable cells expressing recombinant human S1P4R. It counts as cell-based. As to the method: as §2
Data set [10] has as its target T4, S1P5R. Description: β-lactamase gene expression and activity whole-cell assay, S1P5R. Type of data set: cell-based. As to the method:
as §2

Data set [11] in a line: Compound 1 single dose pharmacokinetics in the rat. Type of data set: in vivo. The conditions noted are these: Sprague-Dawley, plasma; for AUC(0-t): read-out: AUC0-24; for half-life: read-out: t½ (converted). The procedure: Plasma samples (50 μL) were aliquoted into a 96 deep-well polypropylene plate (2 mL/well) and 5 μL of dimethyl sulfoxide (DMSO) was added. Samples expected to be above the upper limit of quantitation (ULOQ) were diluted with plasma. Standard curves were prepared by mixing 5 μL of the test compound in DMSO at 10 times the concentration which was added to 50 μL of plasma in a 96 deep-well polypropylene plate. For example, for a 0.3 μM standard, the 10×DMSO concentration of the test compound was 3 μM. Standard curves were prepared using analytical standards of Compound 1. Protein was precipitated from study samples and standards by the addition of 150 μL of acetonitrile. The plate was vortexed to ensure complete precipitation of protein. The precipitated protein was pelleted by centrifugation at 4,000 rpm for 10 min at 20° C. and the clear supernatant was transferred to a clean 96-well plate and centrifuged again under the same conditions to pellet any transferred solid material.
Samples (7 μL) were introduced to a Shimadzu HPLC (LC-20ADXR) with a SIL-30ACMP autosampler (Shimadzu). The mobile phase was a gradient using 0.1% formic acid in water and 0.1% formic acid in acetonitrile. The column used was a Phenomenex Kinetic C18 100 A 2.6μ30×3 mm (PN 946975-906). The CTO-20AC column oven (Shimadzu) was set at 40° C. Prepared samples were usually analyzed in order of lowest to highest concentration for standards and reverse order of time-points for study samples. Study samples were bracketed by full standard curves. Typically at least 6 standards were used for quantitation with a percent accuracy of +/−15% for all standards except at the lower level of quantitation (LLOQ) where a percent accuracy of +/−20% was allowed.
An ABSciex Instruments Triple Quad 5500 Mass Spectrometer (Analyst 1.6.3) was used for detection in the MRM mode. Ionization was achieved by positive or negative electrospray with a source temperature of 600° C. Negative and positive mode analysis was performed in the same injection. Standard samples were usually analyzed in order of lowest to highest concentration. Typically at least six standards were used for quantification with a percent accuracy of +/−15% for all standards except at the LLOQ where a percent accuracy of +/−20% was allowable. Study samples were analyzed in reverse chronological order bracketed with bracketing standard curves.
Blood concentration versus time data are analyzed using non-compartmental methods (WinNonlin version 5.2; model 200 for oral dosing and model 202 for intravenous infusion). Absolute oral bioavailability (%) is calculated using the following expression: (Oral AUC×IV Dose)/(IV AUC×Oral Dose)×100.
Compound 1 was administered in a formulation of 10% volume/volume (v/v) DMSO and 5% v/v Tween 20 in water by IV administration (10 mL/kg) or 0.5% weight/volume (w/v) CMC in water by oral gavage (10 mL/kg). Animals received 0.2 mg/kg as the IV dose or 2 mg/kg/day orally as a single administration. Blood samples were collected at 1, 5, and 30 minutes, 2, 4, 8, 10, 24, […], 48, and 72 hours after IV dosing and 1, 2, 3, 4, 6, 8, 10, 12, 24, 48, and 72 hours following oral dosing. Blood was collected into tubes containing the anti-coagulant K2EDTA and processed to plasma. Plasma concentrations for each analyte were determined using a qualified LC-MS/MS method.

Data set [12] has as its system circulating lymphocytes. Description: Assessment of circulating lymphocyte counts after single oral dose. It counts as in vivo, Sprague Dawley rats. The following applies: rat, 2 mg/kg oral single dose. As to the method:
Whole blood samples were collected from acclimated, conscious male Sprague Dawley rats in the fed state using percutaneous jugular vein puncture at pre-dose and 3, 6 and 24 hours after single oral dose administration of vehicle or test compound. Blood samples were collected into K2EDTA tubes, thoroughly mixed and stored on wet ice until analyzed. Circulating lymphocyte counts were assessed by two methods from individual aliquots of the same samples. Total lymphocyte counts were determined in a standard hematology panel on a calibrated analyzer (Test #416; Horiba Medical ABX Pentra XL 80) and by in-house flow cytometry using fluorescent-activated cell sorting (FACS) analysis to determine the number of CD4+, CD8+ and B220+ lymphocytes (ThermoFisher Attune NxT flow cytometer). Data are expressed as follows for absolute lymphocyte counts (hematology analyzer), the individual lymphocyte subtypes (CD4+, CD8+ and B220+) and the sum of the individual lymphocyte subtypes (flow cytometry). • Number of lymphocytes per μL whole blood. • Percentage change relative to each group's pre-dose baseline at each time point
Whole blood samples (K2EDTA) were analyzed on the flow cytometer (ThermoFisher Attune NxT) using rat antibodies, as detailed below. The baseline and 3 hour post-dose samples were analyzed on the same day as collection. The 6 hour post-dose samples were analyzed after overnight storage at 4° C. (on wet ice in a 2-8° C. fridge) and on the same day as the 24 hour post-dose samples were collected and analyzed.
The oral dose level of 2 mg/kg of Compound 1 administered to the animals was intended to induce a significant reduction (˜≥60%) in the number of circulating lymphocyte. Following acclimation, blood samples were serially collected from the jugular vein of conscious Sprague Dawley rats prior to dosing and 3 hours, 6 and 24 hours after administration. The absolute number of circulating lymphocytes was quantified in whole blood samples using a hematology analyzer and the CD4^+, CD8^+ and B220^+ lymphocyte subtypes by flow cytometry. The plasma concentrations for each compound were quantified with liquid chromatography, tandem mass spectrometry.

Where [13] appears, read: Table 4 comparative selectivity, agonist values, read-out: EC50 S1P2.
The mark [14] stands for this setting: Table 4 comparative selectivity, agonist values, read-out: EC50 S1P3.
[15] abbreviates: Table 4 comparative selectivity, agonist values, read-out: EC50 S1P4.

Where two headings read alike, the source gives them in different places.

T1 sequence (O95136 whole entry): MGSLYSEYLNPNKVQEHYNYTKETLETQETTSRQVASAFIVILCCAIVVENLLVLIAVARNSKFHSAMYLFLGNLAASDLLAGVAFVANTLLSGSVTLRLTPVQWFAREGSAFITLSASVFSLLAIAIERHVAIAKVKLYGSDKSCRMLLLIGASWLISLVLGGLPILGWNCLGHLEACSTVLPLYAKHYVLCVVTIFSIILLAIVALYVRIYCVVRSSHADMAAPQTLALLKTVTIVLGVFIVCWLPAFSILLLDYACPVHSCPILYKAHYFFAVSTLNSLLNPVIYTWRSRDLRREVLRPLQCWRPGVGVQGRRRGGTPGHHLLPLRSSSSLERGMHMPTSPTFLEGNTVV
T2 sequence (Q99500 whole entry): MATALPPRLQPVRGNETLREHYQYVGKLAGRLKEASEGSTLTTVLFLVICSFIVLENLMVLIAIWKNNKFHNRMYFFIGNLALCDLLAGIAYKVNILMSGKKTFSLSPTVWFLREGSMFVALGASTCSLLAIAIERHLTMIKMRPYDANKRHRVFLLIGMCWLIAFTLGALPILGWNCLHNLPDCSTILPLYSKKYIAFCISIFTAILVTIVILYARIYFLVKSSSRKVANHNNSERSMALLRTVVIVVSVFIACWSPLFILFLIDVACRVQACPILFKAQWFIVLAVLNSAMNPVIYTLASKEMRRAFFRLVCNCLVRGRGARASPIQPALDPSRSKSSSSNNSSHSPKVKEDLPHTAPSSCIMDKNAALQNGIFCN

Broadly, the EC50 is the midpoint of the concentration-response curve. What is called Tmax is the time at which the peak concentration occurs. With `CC(C)Oc1ccc(-c2nc(-c3cccc4c3CC[C@@H]4NCCO)no2)cc1C#N` [Ozanimod, reference compound], the EC50 in data set [1] (setting [13]) was more than 10000 nM; in [2] (setting [14]), more than 5000 nM; in [3] (setting [15]), 2040 nM; in [4] (Table 4 comparative selectivity, agonist values, read-out: EC50 S1P5), 5.1 nM. Also, the half-life in [5] (human, blood, po, 1 mg, read-out: Mean t1/2 (at steady state)) was 15 to 23 h. The Tmax in [5] (human, blood, po) lay in the range of 6 to 8 h. In addition, the “% of total agonist exposure at steady state” value in data set [5] was “Ozanimod: 3% to 6%”.
One may read the Cmax as the highest concentration seen after dosing. As usually defined, the Vd/F is the apparent distribution volume after extravascular dosing. For orientation: bioavailability means dose-corrected exposure relative to a reference, in per cent. Read a high bioavailability as much systemic uptake. As to `CC(C)Oc1ccc(-c2nc(-c3cccc4c3CCC4=O)no2)cc1C#N` [Compound 1, 2-isopropoxy-5-(3-(1-oxo-2,3-dihydro-1H-inden-4-yl)-1,2,4-oxadiazol-5-yl)benzonitrile], the “selectivity for S1P1R over S1P2R, S1P3R and S1P4R” value in [6] ([35S]GTPγS binding activity readout) was “greater than 1000 fold”. Also, the EC50 in data set [6] (recombinant human S1P1R membranes) is 2.1 nM; in [1] (setting [13]), more than 10000 nM; in [1] (recombinant human S1P2R membranes, read-out: EC50 S1P2R GTPγS), more than 10000 nM; in data set [2] (setting [14]), more than 5000 nM; in data set [2] (recombinant human S1P3R membranes, read-out: EC50 S1P3R GTPγS), more than 5000 nM; in data set [3] (setting [15]) it was more than 10000 nM. Further, the EC50 in [3] (recombinant human S1P4R membranes, read-out: EC50 S1P4R GTPγS) is more than 10000 nM; in data set [4] (recombinant human S1P5R membranes, read-out: EC50 S1P5R GTPγS), 17.9 nM; in data set [7], 0.04 nM; in data set [8], more than 10000 nM; in data set [9], more than 10000 nM; in [10] (stable cells expressing recombinant human S1P5R), 6.9 nM. For the same compound, the “selectivity for S1P5R over S1P2R, S1P3R and S1P4R” value in [4] (GTPγS readout) and in data set [10] (β-lactamase readout) was “greater than 200 fold” in each case. In addition, the Cmax in data set [11] (0.2 mg/kg IV, single dose) amounted to 743 nM; in data set [11] (2.0 mg/kg oral, single dose), 14.8 nM. In addition, the Tmax is 0.02 h in data set [11] (0.2 mg/kg IV, single dose); 3 h in data set [11] (2.0 mg/kg oral, single dose); 6 to 10 h in data set [5] (human, blood, po). The AUC(0-t) in data set [11] (0.2 mg/kg IV, single dose) came to 0.386 µM·h; in [11] (2.0 mg/kg oral, single dose) it was 0.0954 µM·h. In addition, the half-life is 1.62 h in data set [11] (0.2 mg/kg IV, single dose) and 3.73 h in data set [11] (2.0 mg/kg oral, single dose). Moreover, the Vd/F in data set [11] (2.0 mg/kg oral, single dose) was found to be 292 L/kg. This compound also returned a bioavailability in data set [11] (2.0 mg/kg oral vs 0.2 mg/kg IV) of 2.5%. Also, in data set [12], the “time of maximum effect on lymphocyte counts” value is “by six hours after administration”. For the same compound, the “effect on lymphocyte counts at the 24 hour time-point” value in data set [12] (24 hours) is “without significant effect”. In addition, the “reduction of B220+ lymphocyte population relative to pre-dose” value in [12] (flow cytometry) came out at 35%. Also, in data set [12] (flow cytometry), the “reduction of CD4+ lymphocyte population relative to pre-dose” value stood at 68%. Moreover, the “reduction of CD8+ lymphocyte population relative to pre-dose” value in data set [12] (flow cytometry) was determined as 62%. In addition, in data set [12] (flow cytometry), the “reduction of total circulating lymphocyte counts (total number of CD4+, CD8+ and B220+) relative to pre-dose” value is given as 52%. The “fewer lymphocytes relative to pre-dose values” in data set [12] (hematology analyzer) is reported as 44%. Besides, the “Peak-to-trough ratio (at steady state)” value in data set [5] (RMS subjects, ozanimod HCl 0.5 or 1 mg PO QD, steady state) is 1.3- to 1.6-fold. Further, in [5], the “% of total agonist exposure at steady state” value was 85% to 93%.
